Series [1] is described as follows: DRUGMATRIX: Glutamate, AMPA radioligand binding (ligand: [3H] AMPA). The series is classed as cell membranes, Rattus norvegicus, Wistar, Cerebral cortex, Membrane. To be noted: Not Active = under 50% inhibition at 10 µM.
The target in series [2] is T1, Cysteinyl leukotriene receptor 1 (Homo sapiens, UniProt Q9Y271). Note: in other assays of this panel Not Active means under 50% inhibition at 10 µM.
T1 sequence (Q9Y271 whole entry): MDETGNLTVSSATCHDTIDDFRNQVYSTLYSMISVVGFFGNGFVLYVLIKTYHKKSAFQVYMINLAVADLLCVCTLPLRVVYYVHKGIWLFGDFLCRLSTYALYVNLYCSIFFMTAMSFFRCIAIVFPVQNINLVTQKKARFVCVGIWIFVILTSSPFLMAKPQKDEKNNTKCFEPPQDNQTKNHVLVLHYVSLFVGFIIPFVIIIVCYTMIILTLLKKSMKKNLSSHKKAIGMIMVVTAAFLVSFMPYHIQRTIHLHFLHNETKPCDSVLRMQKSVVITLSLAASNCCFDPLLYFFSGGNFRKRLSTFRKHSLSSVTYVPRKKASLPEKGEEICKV
The series is classed as cell membranes, Membrane. The note with it: cho-k1.

The target in series [3] is Mitogen-activated protein kinase 14 (Homo sapiens, UniProt Q16539). On the set-up: species or system Escherichia coli.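 Note: inhibition of p38alpha enzyme activity in a biochemical kinase assay, with myelin basic protein serving as substrate; in other assays of this panel Not Active means under 50% inhibition at 10 µM.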
Mitogen-activated protein kinase 14, sequence (Q16539 whole entry): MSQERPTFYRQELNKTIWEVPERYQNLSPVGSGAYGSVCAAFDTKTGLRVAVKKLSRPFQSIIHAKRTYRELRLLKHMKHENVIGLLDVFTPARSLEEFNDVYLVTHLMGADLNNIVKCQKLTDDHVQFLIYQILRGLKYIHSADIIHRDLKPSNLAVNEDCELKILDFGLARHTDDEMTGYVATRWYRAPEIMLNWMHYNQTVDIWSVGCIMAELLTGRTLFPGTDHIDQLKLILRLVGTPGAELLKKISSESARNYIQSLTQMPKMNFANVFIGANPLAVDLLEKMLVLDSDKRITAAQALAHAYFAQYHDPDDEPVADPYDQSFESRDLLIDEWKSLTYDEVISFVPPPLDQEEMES
The nature of series [4]: DRUGMATRIX: Nicotinic Acetylcholine radioligand binding (ligand: [125I] Epibatidine). The format is cell membranes, Membrane. To be noted: imr-32; Not Active = under 50% inhibition at 10 µM.
Series [5] concerns the target T2, 5-hydroxytryptamine receptor 2C (Homo sapiens, UniProt P28335).
T2 sequence (P28335 whole entry): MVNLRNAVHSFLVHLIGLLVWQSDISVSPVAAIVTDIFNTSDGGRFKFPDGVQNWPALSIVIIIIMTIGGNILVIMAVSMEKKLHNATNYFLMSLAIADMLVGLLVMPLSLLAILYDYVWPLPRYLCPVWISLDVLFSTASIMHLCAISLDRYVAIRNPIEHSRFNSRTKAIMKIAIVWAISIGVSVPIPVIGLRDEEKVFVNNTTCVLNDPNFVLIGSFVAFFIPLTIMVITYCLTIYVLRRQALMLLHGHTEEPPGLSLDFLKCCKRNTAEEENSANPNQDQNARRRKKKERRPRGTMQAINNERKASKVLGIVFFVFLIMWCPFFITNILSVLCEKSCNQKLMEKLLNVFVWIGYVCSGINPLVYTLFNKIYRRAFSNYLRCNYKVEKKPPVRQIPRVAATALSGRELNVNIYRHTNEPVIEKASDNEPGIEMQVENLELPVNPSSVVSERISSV
Description: DRUGMATRIX: Serotonin (5-Hydroxytryptamine) 5-HT2C radioligand binding (ligand: [3H] Mesulergine). The series is classed as cell membranes, CHO-K1, Membrane. To be noted: Not Active = under 50% inhibition at 10 µM; for pIC50: read-out: IC50; for pKi: read-out: Ki; for IC50: cho-k1.

The next series has as its target Cytochrome P450 2D6 (Homo sapiens, UniProt P10635). To be noted: bti-tn-5b1-4. Note: in other assays of this panel Not Active means under 50% inhibition at 10 µM.

pIC50, pKi: −log10 of the molar value.

The values that follow come from ChEMBL document CHEMBL1909046, “DrugMatrix in vitro pharmacology data”.

Cytochrome P450 2D6, sequence (P10635 whole entry): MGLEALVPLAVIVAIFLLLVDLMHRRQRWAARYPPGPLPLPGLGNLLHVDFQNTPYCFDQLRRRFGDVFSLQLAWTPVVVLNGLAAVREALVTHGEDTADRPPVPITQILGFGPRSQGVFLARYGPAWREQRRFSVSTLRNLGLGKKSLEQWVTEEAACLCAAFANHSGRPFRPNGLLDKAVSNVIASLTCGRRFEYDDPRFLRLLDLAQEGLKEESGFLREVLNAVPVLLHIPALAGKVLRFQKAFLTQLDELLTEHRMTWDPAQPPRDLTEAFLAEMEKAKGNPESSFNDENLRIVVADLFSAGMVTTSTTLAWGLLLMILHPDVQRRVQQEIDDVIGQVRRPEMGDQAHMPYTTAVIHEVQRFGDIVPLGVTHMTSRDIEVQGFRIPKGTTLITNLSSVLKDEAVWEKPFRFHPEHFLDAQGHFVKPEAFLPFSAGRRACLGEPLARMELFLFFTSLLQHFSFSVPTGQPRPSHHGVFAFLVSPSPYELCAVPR

What is called pIC50 is the negative decadic logarithm of the IC50, by convention in mol/L. One may read the pKi as the Ki on a negative log10 scale, so that one unit is a factor of ten. `CN(C)CC[C@@H](c1ccc(Cl)cc1)c1ccccn1` [DEXCHLORPHENIRAMINE]: the IC50 entry (in series [1]; in series [2]; in series [3]; in series [4]; at Cytochrome P450 2D6) was “Not Active” in each case. Also, the Ki result (in series [1]; in series [4]; at Cytochrome P450 2D6) was “Not Active” each time. Further, in series [5], the pIC50 is 5.63. For the same molecule, in series [5], the pKi was 5.91.
As to `C[C@@H]1CC[C@@]2(OC1)O[C@H]1[C@@H](O)[C@H]3[C@@H]4CC[C@H]5C[C@@H](O[C@@H]6O[C@H](CO)[C@H](O[C@@H]7O[C@H](CO)C(O)[C@H](O[C@@H]8OC[C@@H](O)[C@H](O)[C@H]8O)[C@H]7O[C@@H]7O[C@H](CO)[C@H](O)[C@H](O[C@@H]8O[C@H](CO)[C@@H](O)[C@H](O)[C@H]8O)[C@H]7O)[C@H](O)[C@H]6O)[C@H](O)C[C@]5(C)[C@H]4CC[C@]3(C)[C@H]1[C@@H]2C` (some centres not stated) [DIGITONIN], the IC50 result (in series [1]; in series [2]; in series [3]; in series [4]; in series [5]; against Cytochrome P450 2D6) was “Not Active” throughout. The Ki entry (in series [1]; in series [4]; on Cytochrome P450 2D6) was “Not Active” in each case.
In the case of `C[C@H]1O[C@@H](n2cc(F)c(=O)[nH]c2=O)[C@H](O)[C@@H]1O` [DOXIFLURIDINE], the IC50 entry (in series [1]; in series [2]; in series [3]; in series [4]; in series [5]; against Cytochrome P450 2D6) was “Not Active” in each case. The Ki result (in series [1]; in series [4]; on Cytochrome P450 2D6) was “Not Active” each time.
With `Cn1c(=O)c2c(ncn2CC(O)CO)n(C)c1=O` (configuration not stated) [DYPHYLLINE], the IC50 entry (in series [1]; in series [2]; in series [3]; in series [4]; in series [5]; against Cytochrome P450 2D6) was “Not Active” throughout. In addition, the Ki result (in series [1]; in series [4]; on Cytochrome P450 2D6) was “Not Active” each time.
Turning to `CC[C@H]1CN2CCc3cc(OC)c(OC)cc3[C@@H]2C[C@@H]1C[C@H]1NCCc2cc(OC)c(OC)cc21` [EMETINE], the IC50 entry (in series [1]; in series [2]; in series [3]; in series [4]; in series [5]; at Cytochrome P450 2D6) was “Not Active” throughout. For the same molecule, the Ki entry (in series [1]; in series [4]; at Cytochrome P450 2D6) was “Not Active” throughout.
For the molecule `C[C@@H](CO)NC(=O)[C@@H]1C=C2c3cccc4[nH]cc(c34)C[C@H]2N(C)C1` [ERGONOVINE], the IC50 entry (in series [1]; in series [2]; in series [3]; in series [4]; at Cytochrome P450 2D6) was “Not Active” in each case. The Ki entry (in series [1]; in series [4]; on Cytochrome P450 2D6) was “Not Active” throughout. The pIC50 in series [5] was 7.68. In series [5], the pKi is 7.96.
With `COC(=O)CCc1ccc(OCC(O)CNC(C)C)cc1` (configuration not stated) [ESMOLOL], the IC50 entry (in series [1]; in series [2]; in series [3]; in series [4]; in series [5]; on Cytochrome P450 2D6) was “Not Active” each time. The Ki result (in series [1]; in series [4]; at Cytochrome P450 2D6) was “Not Active” each time.
As for `CCC1(C)CC(=O)NC1=O` (configuration not stated) [ETHOSUXIMIDE], the IC50 result (in series [1]; in series [2]; in series [3]; in series [4]; in series [5]; against Cytochrome P450 2D6) was “Not Active” in each case. For the same molecule, the Ki result (in series [1]; in series [4]; on Cytochrome P450 2D6) was “Not Active” in each case.
On to `C#C[C@]1(OC(C)=O)CC[C@H]2[C@@H]3CCC4=C[C@@H](OC(C)=O)CC[C@@H]4[C@H]3CC[C@@]21C` [ETHYNODIOL DIACETATE], for which the IC50 result (in series [1]; in series [2]; in series [3]; in series [4]; in series [5]; against Cytochrome P450 2D6) was “Not Active” each time. Further, the Ki result (in series [1]; in series [4]; on Cytochrome P450 2D6) was “Not Active” in each case.
As for `C=CCc1ccc(O)c(OC)c1` [EUGENOL], the IC50 entry (in series [1]; in series [2]; in series [3]; in series [4]; in series [5]; on Cytochrome P450 2D6) was “Not Active” each time. Moreover, the Ki entry (in series [1]; in series [4]; on Cytochrome P450 2D6) was “Not Active” each time.
As for `CC(C(=O)O)c1cccc(Oc2ccccc2)c1` (configuration not stated) [FENOPROFEN], the IC50 entry (in series [1]; in series [2]; in series [3]; in series [4]; in series [5]; on Cytochrome P450 2D6) was “Not Active” each time. Also, the Ki entry (in series [1]; in series [4]; on Cytochrome P450 2D6) was “Not Active” throughout.
For the molecule `CC(C)(C)NC(=O)[C@H]1CC[C@H]2[C@@H]3CC[C@H]4NC(=O)C=C[C@]4(C)[C@H]3CC[C@]12C` [FINASTERIDE], the IC50 result (in series [1]; in series [2]; in series [3]; in series [4]; in series [5]; at Cytochrome P450 2D6) was “Not Active” each time. In addition, the Ki result (in series [1]; in series [4]; at Cytochrome P450 2D6) was “Not Active” each time.
On to `Nc1ccn([C@@H]2O[C@H](CO)[C@@H](O)C2(F)F)c(=O)n1` [GEMCITABINE], for which the IC50 entry (in series [1]; in series [2]; in series [3]; in series [4]; in series [5]; against Cytochrome P450 2D6) was “Not Active” in each case. The Ki entry (in series [1]; in series [4]; at Cytochrome P450 2D6) was “Not Active” throughout.
Take `N=C(N)NC(=O)Cc1c(Cl)cccc1Cl` [GUANFACINE]: the IC50 entry (in series [1]; in series [2]; in series [3]; in series [4]; against Cytochrome P450 2D6) was “Not Active” in each case. Moreover, the Ki entry (in series [1]; in series [4]; at Cytochrome P450 2D6) was “Not Active” in each case. Further, the negative logarithm of the IC50 (pIC50) in series [5] was 5.84. Besides, the pKi in series [5] was 6.12.
Take `Oc1c(Cl)cc(Cl)c(Cl)c1Cc1c(O)c(Cl)cc(Cl)c1Cl` [HEXACHLOROPHENE]: the IC50 entry (in series [1]; in series [2]; in series [4]; against Cytochrome P450 2D6) was “Not Active” each time. The Ki entry (in series [1]; in series [4]; on Cytochrome P450 2D6) was “Not Active” in each case. Further, the pIC50 was 7.06 in series [3] (read-out: IC50) and 5.34 in series [5]. Also, in series [5], the pKi is 5.62.
Turning to `NNc1nncc2ccccc12` [HYDRALAZINE], the IC50 result (in series [1]; in series [2]; in series [3]; in series [4]; in series [5]; at Cytochrome P450 2D6) was “Not Active” throughout. Besides, the Ki entry (in series [1]; in series [4]; on Cytochrome P450 2D6) was “Not Active” throughout.
For the molecule `CC(C)NNC(=O)c1ccncc1` [IPRONIAZID], the IC50 result (in series [1]; in series [2]; in series [3]; in series [4]; in series [5]; at Cytochrome P450 2D6) was “Not Active” each time. The Ki entry (in series [1]; in series [4]; at Cytochrome P450 2D6) was “Not Active” throughout.
For `O=c1cc(N2CCOCC2)oc2c(-c3ccccc3)cccc12` [LY-294002], the IC50 result (in series [1]; in series [2]; in series [3]; in series [4]; against Cytochrome P450 2D6) was “Not Active” each time. For the same molecule, the Ki result (in series [1]; in series [4]; on Cytochrome P450 2D6) was “Not Active” throughout. Further, the pIC50 in series [5] is 6.00. In series [5], the pKi was 6.28.
